The nature of the data set: Stability profile at 25° C. in buffered aqueous solutions. The conditions noted are these: for Degradation Rate Constant (k): 25° C. Type of data set: physicochemical. An excerpt:
While not intending to be bound in any way by theory, the base-catalyzed degradation is unexpected because the commercial proton pump inhibitors are stabilized in aqueous solutions by adjusting the solution to high pH. […] This should allow bolus injection of the compounds disclosed herein as opposed to the slow infusion of the drug currently in practice because the present compositions will not have the irritation associated with the high pH traditionally used with proton pump inhibitors. This should also allow greater flexibility in co-administering these compounds with drugs which are unstable or otherwise incompatible with high pH.

Each structure is given as a SMILES string.

Consider `COc1ccc2c(c1)nc([S+]([O-])Cc1ncc(C)c(OC)c1C)n2S(=O)(=O)c1ccc(OCC(=O)O)cc1` (centres unmarked) [Compound 1], for which the shelf-life entry (in a neutral solution) is “over forty hours”. The Degradation Rate Constant (k) by setting is: (pH 1, 0.1 M HCl) 0.194 h⁻¹; (pH 3, Citric Acid (0.1 M)/Na2HPO4 (0.2 M)) 0.009 h⁻¹; (pH 5, Citric Acid (0.1 M)/Na2HPO4 (0.2 M)) 0.008 h⁻¹; (pH 7, sodium phosphate (0.1-0.2 M)) 0.002 h⁻¹; (pH 7.4, sodium phosphate (0.1-0.2 M)) 0.002 h⁻¹; (pH 9, sodium phosphate (0.1-0.2 M)) 0.03 h⁻¹. Besides, the Degradation Rate Constant (k) (pH 10, sodium phosphate (0.1-0.2 M)) stood at 0.298 h⁻¹.

Values taken from patent US20100222390A1, “Methods and Compositions for the Intravenous Administration of Compounds Related to Proton Pump Inhibitors” (Alevium Pharmaceuticals, Inc., priority 2004, published 2010).
